Test results published in the supplement of paper PMC10307832.

How the values were obtained:
Experiment in all cases: relative viability (nuclei count vs DMSO), 5 days (fraction); higher = more cells survive
[1] = compound: C=CCn1c(=O)c2cnc(Nc3ccc(N4CCN(C)CC4)cc3)nc2n1-c1cccc(C(C)(C)O)n1 [Adavosertib] + CC(=O)Nc1cccc(-n2c(=O)n(C3CC3)c(=O)c3c(Nc4ccc(I)cc4F)n(C)c(=O)c(C)c32)c1 [Trametinib] (partner 0.02 µM)
Summary of the method: (§1)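 Five library-drug doses in √10 steps were combined with a fixed anchor-drug dose, or a single drug was given alone, by pin tool to lung cancer cell lines in 1536-well plates the day after seeding. Nuclei were stained and counted after 5 days. Relative viability is the nuclei count in treated wells over that in vehicle wells, taken as the median of duplicate plates.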

[2] = compound: C=CCn1c(=O)c2cnc(Nc3ccc(N4CCN(C)CC4)cc3)nc2n1-c1cccc(C(C)(C)O)n1 [Adavosertib] + CCNC(=O)c1noc(-c2cc(C(C)C)c(O)cc2O)c1-c1ccc(CN2CCOCC2)cc1 [Luminespib] (partner 0.01 µM)
Summary of the method: as §1

[3] = compound: COc1nc(N)nc2c1ncn2[C@@H]1O[C@H](CO)[C@@H](O)[C@@H]1O [Nelarabine] + CS(=O)(=O)N1CCN(Cc2cc3nc(-c4cccc5[nH]ncc45)nc(N4CCOCC4)c3s2)CC1 [Pictilisib] (partner 1 µM)
Summary of the method: as §1

[4] = compound: COc1nc(N)nc2c1ncn2[C@@H]1O[C@H](CO)[C@@H](O)[C@@H]1O [Nelarabine] + O=C(c1cc(Cc2n[nH]c(=O)c3ccccc23)ccc1F)N1CCN(C(=O)C2CC2)CC1 [Olaparib] (partner 8 µM)
Summary of the method: as §1

Cell Line	relative viability ([1]; first compound 0.01 µM)	relative viability ([1]; first compound 0.03162 µM)	relative viability ([1]; first compound 0.1 µM)	relative viability ([1]; first compound 0.3162 µM)	relative viability ([2]; first compound 0.01 µM)	relative viability ([2]; first compound 0.03162 µM)	relative viability ([2]; first compound 0.1 µM)	relative viability ([2]; first compound 0.3162 µM)	relative viability ([3]; first compound 0.01 µM)	relative viability ([3]; first compound 0.03162 µM)	relative viability ([3]; first compound 0.1 µM)	relative viability ([3]; first compound 0.3162 µM)	relative viability ([3]; first compound 1 µM)	relative viability ([4]; first compound 0.01 µM)	relative viability ([4]; first compound 0.03162 µM)	relative viability ([4]; first compound 0.1 µM)	relative viability ([4]; first compound 0.3162 µM)	relative viability ([4]; first compound 1 µM)
UMC-11	0.74	0.633	0.743	0.615	1.02	0.936	1.15	1	1.05	0.729	0.874	1.02	0.898	0.36	0.469	0.356	0.386	0.357
NCI-H1975	0.303	0.309	0.327	0.415	0.16	0.17	0.188	0.176	0.325	0.295	0.369	0.335	0.331	1.04	0.942	0.823	0.856	0.797
NCI-H2405	–	0.63	0.721	0.671	0.556	0.805	0.773	0.69	0.532	0.464	0.382	0.49	0.492	0.948	0.834	0.83	0.899	0.896
NCI-H1734	0.64	0.726	0.711	0.711	0.234	0.241	0.184	0.191	0.561	0.538	0.516	0.479	0.452	0.688	0.597	0.689	0.61	0.654
NCI-H1993	0.42	0.449	0.535	0.561	0.912	0.904	0.836	1.06	0.718	0.81	0.894	0.779	0.899	1.19	0.993	0.865	0.939	0.984
NCI-H1792	0.378	0.505	0.448	0.42	0.595	0.446	0.456	0.569	0.348	–	0.323	0.326	0.323	0.52	0.42	0.581	0.566	0.436
NCI-H358	0.132	0.124	0.124	0.124	0.28	0.307	0.454	0.359	0.374	0.3	0.294	0.362	0.328	0.616	0.406	0.587	0.637	0.627
Calu-6	–	–	–	–	–	–	–	–	1.15	0.856	0.977	0.891	0.962	0.67	0.65	0.698	0.575	0.594
PC-14	0.704	0.808	0.862	0.683	0.151	0.165	0.219	0.141	1.17	0.759	0.563	0.815	0.653	0.265	0.205	0.31	0.251	0.294
